The text below walks through data of patent US20130303532A1, “IMIDAZOPYRAZINES FOR USE AS MPS-1 AND TKK INHIBITORS IN THE TREATMENT HYPERPROLIFERATIVE DISORDERS” (BAYER INTELLECTUAL PROPERTY GmbH, priority 2010, published 2013).

The target of one assay is T1, human kinase Mps-1 (Homo sapiens, UniProt P33981).
T1 construct: N-terminally GST-tagged human full length recombinant Mps-1 kinase; GST (N); purchased Invitrogen, Karslruhe, Germany PV4071
T1 sequence (P33981 1-857): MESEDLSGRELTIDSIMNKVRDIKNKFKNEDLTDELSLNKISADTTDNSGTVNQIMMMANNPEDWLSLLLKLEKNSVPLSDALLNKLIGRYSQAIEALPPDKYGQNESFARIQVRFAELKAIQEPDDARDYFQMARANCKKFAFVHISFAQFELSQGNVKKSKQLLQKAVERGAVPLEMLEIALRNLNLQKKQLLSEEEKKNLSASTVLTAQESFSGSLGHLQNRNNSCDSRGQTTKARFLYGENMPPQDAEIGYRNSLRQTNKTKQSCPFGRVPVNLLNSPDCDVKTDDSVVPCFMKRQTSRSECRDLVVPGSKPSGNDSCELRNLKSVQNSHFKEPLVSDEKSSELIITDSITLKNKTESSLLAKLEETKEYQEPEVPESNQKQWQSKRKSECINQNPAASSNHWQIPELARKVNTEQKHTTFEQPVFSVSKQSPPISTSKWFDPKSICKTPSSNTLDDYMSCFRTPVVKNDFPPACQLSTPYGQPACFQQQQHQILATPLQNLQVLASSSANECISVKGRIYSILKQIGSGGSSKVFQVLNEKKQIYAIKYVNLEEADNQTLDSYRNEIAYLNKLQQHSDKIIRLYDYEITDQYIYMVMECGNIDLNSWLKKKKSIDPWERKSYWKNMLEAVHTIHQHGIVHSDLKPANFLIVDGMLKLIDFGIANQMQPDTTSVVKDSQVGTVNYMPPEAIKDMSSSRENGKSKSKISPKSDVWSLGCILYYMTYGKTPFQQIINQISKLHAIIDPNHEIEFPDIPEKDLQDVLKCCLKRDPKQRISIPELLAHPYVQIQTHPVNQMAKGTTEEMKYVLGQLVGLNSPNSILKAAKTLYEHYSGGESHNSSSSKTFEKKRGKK
The assay can be described thus: Mps-1 kinase assay (TR-FRET). The conditions noted are these: Mps1 IC50 [nM], N-terminally GST-tagged human full length recombinant Mps-1; 10 μM ATP; 1 μM biotinylated peptide substrate; 60 min at 22° C. In kind it is biochemical.
With `Cc1cc(-c2cnc3c(NCCO)nccn23)ccc1C(=O)NC1CC1` [Example 7-91, N-cyclopropyl-4-{8-[(2-hydroxyethyl)amino]imi-dazo[1,2-a]pyrazin-3-yl}-2-methylbenzamide], the IC50 (as a rule, the concentration that gives 50% inhibition) was found to be 363 nM.

For `CC(C)(O)CNc1nccn2c(-c3ccc(C(=O)NC4CC4)c(Cl)c3)cnc12` [Example 7-64, 2-chloro-N-cyclopropyl-4-{8-[(2-hydroxy-2-methylpropyl)amino]imi-dazo[1,2-a]pyrazin-3-yl}benzamide], the IC50 turned out to be 538 nM. For `COCCNc1nccn2c(-c3ccc(C(=O)NC4CC4)c(Cl)c3)cnc12` [Example 7-36, 2-chloro-N-cyclopropyl-4-{8-[(2-methoxyethyl)amino]imi-dazo[1,2-a]pyrazin-3-yl}benzamide], the IC50 came to 593 nM. Consider `Cc1cc(-c2cnc3c(NC[C@@H](O)CO)nccn23)ccc1C(=O)NC1CC1` [Example 7-125, N-cyclopropyl-4-{8-[(2,3-dihydroxypropyl)amino]imi-dazo[1,2-a]pyrazin-3-yl}-2-methylbenzamide], for which the IC50 amounted to 361 nM. Take `Cc1cc(-c2cnc3c(NCc4ccccc4F)nccn23)ccc1C(=O)NC1CC1` [Example 7-97, N-cyclopropyl-4-{8-[(2-fluorobenzyl)amino]imi-dazo[1,2-a]pyrazin-3-yl}-2-methylbenzamide]: the IC50 was determined as 31.6 nM. The same measure, in the same setting: the result for `CC(O)CNc1nccn2c(-c3ccc(C(=O)NC4CC4)c(Cl)c3)cnc12` (centres unmarked) [Example 7-57, 2-chloro-N-cyclopropyl-4-{8-[(2-hydroxypropyl)amino]imi-dazo[1,2-a]pyrazin-3-yl}benzamide] reads 401 nM. The same measure, in the same setting: the figure for `O=C(NC1CC1)c1ccc(-c2cnc3c(NCCC(F)(F)F)nccn23)cc1O` [Example 7-83, N-cyclopropyl-2-hydroxy-4-{8-[(3,3,3-trifluoropropyl)amino]imi-dazo[1,2-a]pyrazin-3-yl}benzamide] is 22.3 nM. For `O=C(NC1CC1)c1ccc(-c2cnc3c(NCc4ccccc4F)nccn23)cc1Cl` [Example 7-37, 2-chloro-N-cyclopropyl-4-{8-[(2-fluorobenzyl)amino]imi-dazo[1,2-a]pyrazin-3-yl}benzamide], the IC50 was found to be 93.8 nM. For the molecule `O=C(NC1CC1)c1ccc(-c2cnc3c(NCc4cccc(F)c4)nccn23)cc1Cl` [Example 7-33, 2-chloro-N-cyclopropyl-4-{8-[(3-fluorobenzyl)amino]imi-dazo[1,2-a]pyrazin-3-yl}benzamide], the IC50 came out at 200 nM. On the same count and under the same terms, the result for `COCCNc1nccn2c(-c3ccc(C(=O)NC4CC4)c(C)c3)cnc12` [Example 7-96, N-cyclopropyl-4-{8-[(2-methoxyethyl)amino]imi-dazo[1,2-a]pyrazin-3-yl}-2-methylbenzamide] reads 229 nM; that for `O=C(NC1CC1)c1ccc(-c2cnc3c(NCc4ccc(F)cc4)nccn23)cc1Cl` [Example 7-38, 2-chloro-N-cyclopropyl-4-{8-[(4-fluorobenzyl)amino]imi-dazo[1,2-a]pyrazin-3-yl}benzamide], 112 nM. The same measure, in the same setting: the figure for `COCCCNc1nccn2c(-c3ccc(C(=O)NC4CC4)cc3)cnc12` [Example 7-3, N-cyclopropyl-4-{8-[(3-methoxypropyl)amino]imi-dazo[1,2-a]pyrazin-3-yl}benzamide] is 95.8 nM; for `Cc1cc(-c2cnc3c(NCCCN4CCOCC4)nccn23)ccc1C(=O)NC1CC1` [Example 7-92, N-cyclopropyl-2-methyl-4-(8-{[3-(morpholin-4-yl)propyl]amino}imi-dazo[1,2-a]pyrazin-3-yl)benzamide] it is 389 nM. In the case of `O=C(NC1CC1)c1ccc(-c2cnc3c(NCCO)nccn23)cc1O` [Example 7-70, N-cyclopropyl-2-hydroxy-4-{8-[(2-hydroxyethyl)amino]imi-dazo[1,2-a]pyrazin-3-yl}benzamide], the IC50 came to 414 nM. In the case of `Cc1cc(-c2cnc3c(NCc4ccccc4Cl)nccn23)ccc1C(=O)NC1CC1` [Example 5-4, 4-{8-[(2-chlorobenzyl)amino]imi-dazo[1,2-a]pyrazin-3-yl}-N-cyclopropyl-2-methylbenzamide], the IC50 amounted to 18.8 nM.

Take `O=C(NC1CC1)c1ccc(-c2cnc3c(NCCC(F)(F)F)nccn23)cc1Cl` [Example 7-56, 2-chloro-N-cyclopropyl-4-{8-[(3,3,3-trifluoropropyl)amino]imi-dazo[1,2-a]pyrazin-3-yl}benzamide]: the IC50 worked out at 43 nM. Same read-out and setting: the result for `CCOC(C)CNc1nccn2c(-c3ccc(C(=O)NC4CC4)c(O)c3)cnc12` (centres unmarked) [Example 7-86, N-cyclopropyl-4-{8-[(2-ethoxypropyl)amino]imi-dazo[1,2-a]pyrazin-3-yl}-2-hydroxybenzamide] reads 268 nM; that for `O=C(NC1CC1)c1ccc(-c2cnc3c(NCC(F)F)nccn23)cc1Cl` [Example 7-59, 2-chloro-N-cyclopropyl-4-{8-[(2,2-difluoroethyl)amino]imi-dazo[1,2-a]pyrazin-3-yl}benzamide], 239 nM. Same read-out and setting: the result for `Cc1cc(-c2cnc3c(NCc4cnn(C)c4)nccn23)ccc1C(=O)NC1CC1` [Example 7-120, N-cyclopropyl-2-methyl-4-(8-{[(1-methyl-1H-pyrazol-4-yl)methyl]amino}imi-dazo[1,2-a]pyrazin-3-yl)benzamide] reads 93.4 nM; that for `Cc1cc(-c2cnc3c(NCC(C)(C)O)nccn23)ccc1C(=O)NC1CC1` [Example 7-122, N-cyclopropyl-4-{8-[(2-hydroxy-2-methylpropyl)amino]imi-dazo[1,2-a]pyrazin-3-yl}-2-methylbenzamide], 171 nM.

Still in this assay, the particulars now being: N-terminally GST-tagged human full length recombinant Mps-1; 10 μM ATP; 1 μM biotinylated peptide substrate; 60 min at 22° C.; read-out: Mps1 IC50.
Take `NCCCNc1nccn2c(-c3ccc(C(=O)NC4CC4)c(Cl)c3)cnc12` [Example 3-3, 4-{8-[(3-Aminopropyl)amino]imidazo[1,2-a]pyrazin-3-yl}-2-chloro-N-cyclopropylbenzamide]: the IC50 came out at 2500 nM. As to `O=C(NC1CC1)c1ccc(-c2cnc3c(NCCc4cccs4)nccn23)cc1` [Example 7-21, N-cyclopropyl-4-(8-{[2-(thiophen-2-yl)ethyl]ami-no}imidazo[1,2-a]pyrazin-3-yl)benzamide], the IC50 is 42.3 nM.

Take `CC(=O)NCCNc1nccn2c(-c3ccc(C(=O)NC4CC4)c(Cl)c3)cnc12` [Example 7-45, 4-(8-{[2-(acetylamino)ethyl]ami-no)imidazo[1,2-a]pyrazin-3-yl)-2-chloro-N-cyclopropylbenzamide]: the IC50 was 1750 nM. Still for that read-out and setting: the figure for “4-{8-[(3-amino-3- oxopropyl)amino]imi- dazo[1,2-a]pyrazin-3-yl}-N- cyclopropylbenzamide [Example 7-25]” is 1190 nM; for `CCCCNc1nccn2c(-c3ccc(C(=O)NC4CC4)c(C)c3)cnc12` [Example 7-105, 4-[8-(butylamino)imidazo[1,2-a]pyrazin-3-yl]-N-cyclopropyl-2-methylbenzamide] it is 18.5 nM. Same read-out and setting: the figure for `O=C(NC1CC1)c1ccc(-c2cnc3c(NCc4cccnc4)nccn23)cc1Cl` [Example 7-48, 2-chloro-N-cyclopropyl-4-{8-[(pyridin-3-ylmethyl)amino]imidazo[1,2-a]pyrazin-3-yl}benzamide] is 513 nM; for `COC(=O)CCNc1nccn2c(-c3ccc(C(=O)NC4CC4)cc3)cnc12` [Example 4-6, methyl N-{3-[4-(cyclopropylcarbamoyl)phen-yl]imidazo[1,2-a]pyrazin-8-yl}-beta-alaninate] it is 74.9 nM.

Take `Cc1cc(-c2cnc3c(NCCCS(C)(=O)=O)nccn23)ccc1C(=O)NC1CC1` [Example 5-1, N-cyclopropyl-2-methyl-4-(8-{[3-(methylsulfonyl)propyl]amino}imidazo[1,2-a]pyrazin-3-yl)benzamide]: the IC50 was 278 nM. Same read-out and setting: the figure for `CCCNc1nccn2c(-c3ccc(C(=O)NC4CC4)c(O)c3)cnc12` [Example 7-69, N-cyclopropyl-2-hydroxy-4-[8-(propylamino)imidazo[1,2-a]pyrazin-3-yl]benzamide] is 23.3 nM; for `Cc1cc(C(=O)NC2CC2)ccc1-c1cnc2c(NCC(C)C)nccn12` [Example 1-1, N-cyclopropyl-3-methyl-4-{8-[(2-methylpropyl)amino]imidazo[1,2-a]pyrazin-3-yl}benzamide] it is 52.4 nM; for `CCNc1nccn2c(-c3ccc(C(=O)NC4CC4)c(O)c3)cnc12` [Example 7-77, N-cyclopropyl-4-[8-(ethylamino)imidazo[1,2-a]pyrazin-3-yl]-2-hydroxybenzamide] it is 63.1 nM. On the same count and under the same terms, the figure for `CN(C)CCCNc1nccn2c(-c3ccc(C(=O)NC4CC4)cc3)cnc12` [Example 7-6, N-cyclopropyl-4-(8-{[3-(dimethylamino)propyl]ami-nono}imidazo[1,2-a]pyrazin-3-yl)benzamide] is 1260 nM.
